According to article PMC8291071, “Tertiary sulphonamide derivatives as dual acting small molecules that inhibit LSD1 and suppress tubulin polymerisation against liver cancer” (Journal of Enzyme Inhibition and Medicinal Chemistry, 2021):
Entries after “also recorded” stand apart in the source; their conditions may differ.

How the values were obtained:
Bel-7402 = assay: MTT antiproliferative assay, Bel-7402 cells; assay type: cell-based; details: Homo sapiens, 48 h
Protocol: (§1) Cell lines were purchased from Servicebio (Wuhan, China) and cultured in RPMI1640 (Servicebio, Wuhan, China) with 10% foetal bovine serum and 1% antibiotic agent (Servicebio, Wuhan, China) at 37 °C. With the treatment of synthetic compounds, cells were cultured for 48 h and added with MTT solution (Servicebio, Wuhan, China). After 4 h, medium was removed and DMSO was added to culture for 30 min. Finally, the absorbance value was obtained by a microplate reader (Multiskan Sky, Thermo Fisher, Shanghai, China).
(§2) In order to discover the potent anti-liver cancer agents, all tertiary sulphonamide analogues were evaluated for their anticancer activity in vitro against liver cancer cell lines ([…], HepG-2 and Bel-7402). Cell lines were treat with different tertiary sulphonamide derivatives 16 and 17a∼17f for 48 h to obtain IC50 values. In this work, 5-fluorouracil as an well-known antitumor drug was selected as the control agent.

SNU-475 = assay: MTT antiproliferative assay, SNU-475 cells; assay type: cell-based; details: Homo sapiens, 48 h
HepG-2 = assay: MTT antiproliferative assay, HepG-2 cells; assay type: cell-based; details: for IC50: Homo sapiens, HepG2, 48 h, MTT
Protocol: as §1, §2

Bel-7402&shControl cells = assay: Cell viability of control Bel-7402 cells; assay type: cell-based
[1] = tested on: heart, liver, spleen, lung and kidney; assay: Haematoxylin & eosin staining of organs of treated mice; details: 60 mg/kg, intragastric, 21 days, H&E staining
Protocol: (§4) Xenograft models using Bel-7402 cells was established in nude mice (Jiangsu ALF Biotechnology Co., LTD, Jiangsu, China). Then, mice-bearing tumours were divided into two groups (vehicle and 60 mg/kg group). […] Tumour volume and tumour weight of treated mice were measured.
(§5) Xenograft tumours were produced by the subcutaneous implantation of liver cancer Bel-7402 cells.

Bel-7402 cells = assay: Transwell migration assay; assay type: cell-based; details: 48 h
Protocol: Liver cancer Bel-7402 cells were cultured in the upper chambers of a Transwell 24-well plate (Servicebio, Wuhan, China) for 24 h. 1% FBS and 20% FBS were added into the upper chambers and lower chambers respectively. […] Then, all medium was removed and Bel-7402 cells were fixed with ethanol for 30 min. Finally, Bel-7402 cells from the upper chambers were stained with haematoxylin solution (Servicebio, Wuhan, China) for 30 min.
(§3) LSD1 could specifically demethylate mono- and dimethyl-lysine on histone H3 H3K9me1/2), leading to the transcriptional repression or activation of target genes. Thus, the expression levels of H3K9me1/2 in liver cancer Bel-7402 cells were explored with the treatment of 17a. […] The migration effects of tertiary sulphonamide derivative 17a were also investigated.

Bel-7402 xenograft = Bel-7402 xenograft antitumour study; details: 60 mg/kg, intragastric administration, 21 days
Protocol: as §4, §5

[2] = tested on: H3K9me1/2 in Bel-7402 cells; assay: Western blot of H3K9me1 and H3K9me2 in Bel-7402 cells; assay type: cell-based; details: 48 h
Protocol: Liver cancer Bel-7402 cells were cultured for 24 h and treated with tertiary sulphonamide derivative 17a for 48 h at 37 °C. Protein lysates were harvested from the treated Bel-7402 cells. Nitrocellulose membrane was used to perform polyacrylamide gelelectrophoresis. H3K9me1 and H3K9me2 (Servicebio, Wuhan, China) were treated with the nitrocellulose membrane at 4 °C for 12 h. GAPDH as the secondary antibody was incubated for 1 h at room temperature (Shanghai Yuanye Bio-Technology Co., Ltd, Shanghai, China).
as §3

[3] = tested on: interphase microtubules in Bel-7402 cells; assay: Immunofluorescence of interphase microtubules in Bel-7402 cells; assay type: cell-based; details: 50 nM
Protocol: Liver cancer Bel-7402 cells were cultured on the slices for 24 h and treated with tertiary sulphonamide derivatives for 48 h. Then, Bel-7402 cells were fixed by 4% paraformaldehyde solution (Shanghai Yuanye Bio-Technology Co., Ltd, Shanghai, China) for 30 min. Bovine albumin was used to block the system for 30 min. Bel-7402 cells were cultured with β-tubulin and incubated for 24 h at 4 °C. Finally, 4′,6-diamidino-2-phenylindole (DAPI) was added in a dark room to obtain images of immunostaining (Confocal laser scanning microscope, FV3000RS, Beijing, China).

L-02 cells = assay: Cytotoxicity against normal liver cell line L-02; assay type: cell-based
Protocol: as §1

LSD1 = LSD1 (Homo sapiens, UniProt O60341); assay: LSD1 enzymatic assay; details: for inhibition at 0.2 µM: read-out: inhibitory rate against LSD1
tubulin = assay: Inhibitory activity of tubulin polymerisation in vitro; assay type: biochemical; details: fluorescence intensity

SMILES | IC50 (Bel-7402) [µM] | melting point [°C] | IC50 (SNU-475) [µM] | IC50 (HepG-2) [µM] | cell viability of Bel-7402&shControl cells (Bel-7402&shControl cells) | toxicity of organs (heart, liver, spleen, lung and kidney) [1] | migration of Bel-7402 cells (Bel-7402 cells) | reduction of tumour weight (Bel-7402 xenograft) [%] | tumour growth (Bel-7402 xenograft) | expression levels of H3K9me1 and H3K9me2 [2] | depolymerisation of interphase microtubules [3] | cytotoxicity against L-02 cells (L-02 cells) [µM] | IC50 (LSD1) [µM] | IC50 (tubulin) [µM] | fold activity increase against HepG-2 cells (HepG-2; 17b VS. 17c) | inhibition at 0.2 µM (LSD1) [%] | fold activity loss against LSD1 (LSD1; methyl group replaced with acetyl group (17d VS. 17f as printed))
COc1ccc(S(=O)(=O)N(CCSC(=S)N2CCN(CCO)CC2)c2cc(OC)c(OC)c(OC)c2)cc1 [Compound 17c, 2-((4-Methoxy-N-(3,4,5-trimethoxyphenyl)phenyl)sulfonamido)ethyl-4–(2-hydroxyethyl)piperazine-1-carbodithioate] | 7.09 ± 1.33 | 146 to 148 | 10.8 ± 1.01 | 9.17 ± 2.18 |  |  |  |  |  |  |  |  |  |  |  |  | 
COc1ccc(S(=O)(=O)N(CCSC(=S)N2CCN(C)CC2)c2cc(OC)c(OC)c(OC)c2)cc1 [Compound 17a, 2-((4-Methoxy-N-(3,4,5-trimethoxyphenyl)phenyl)sulfonamido)ethyl-4-methylpiperazine-1-carbodithioate] | 0.32 ± 0.08 |  | 0.73 ± 0.16 | 0.57 ± 0.07 | potently inhibited the cell viability | no apparent toxicity of organs | concentration-dependently inhibited migration; also recorded: significantly inhibited the migration | 42.97 | effectively inhibited the tumour growth in vivo | increased the expression levels of H3K9me1 and H3K9me2 | more pronounced depolymerisation effects | > 64 |  |  |  |  | 
COc1ccc(S(=O)(=O)N(CCBr)c2cc(OC)c(OC)c(OC)c2)cc1 [Compound 16, N-(2-bromoethyl)-4-methoxy-N-(3,4,5-trimethoxyphenyl)benzenesulfonamide] | > 20 | 116 to 118 | > 20 | > 20 |  |  |  |  |  |  |  |  |  |  |  |  | 
COc1ccc(S(=O)(=O)N(CCSC(=S)N2CCN(c3ccc(F)cc3)CC2)c2cc(OC)c(OC)c(OC)c2)cc1 [Compound 17e, 2-((4-Methoxy-N-(3,4,5-trimethoxyphenyl)phenyl)sulfonamido)ethyl-4–(4-fluorophenyl)piperazine-1-carbodithioate] | 9.18 ± 1.32 | 166 to 168 | 6.17 ± 1.05 | 7.57 ± 0.96 |  |  |  |  |  |  |  |  |  |  |  |  | 
CCN1CCN(C(=S)SCCN(c2cc(OC)c(OC)c(OC)c2)S(=O)(=O)c2ccc(OC)cc2)CC1 [Compound 17b, 2-((4-Methoxy-N-(3,4,5-trimethoxyphenyl)phenyl)sulfonamido)ethyl-4-ethylpiperazine-1-carbodithioate] | 1.37 ± 0.16 | 150 to 152 | 2.35 ± 0.7 | 1.03 ± 0.28 |  |  |  |  |  |  | more pronounced depolymerisation effects | > 64 | 0.127 | 2.13 | over 8 fold |  | 
COc1ccc(S(=O)(=O)N(CCSC(=S)N2CCN(C(=O)OC(C)(C)C)CC2)c2cc(OC)c(OC)c(OC)c2)cc1 [Compound 17f, Tert-butyl-4-(((2-((4-methoxy-N-(3,4,5-trimethoxyphenyl)phenyl)sulfonamido)ethyl)thio)carbonothioyl)piperazine-1-carboxylate] | 2.32 ± 1.63 | 162 to 164 | 4.46 ± 1.38 | 6.67 ± 1.25 |  |  |  |  |  |  | moderately depolymerised interphase microtubules |  | > 0.2 | 3.07 |  | 35.7 | 
COc1ccc(S(=O)(=O)N(CCSC(=S)N2CCN(C(C)=O)CC2)c2cc(OC)c(OC)c(OC)c2)cc1 [Compound 17d, 2-((4-Methoxy-N-(3,4,5-trimethoxyphenyl)phenyl)sulfonamido)ethyl-4-acetylpiperazine-1-carbodithioate] | 1.58 ± 1.02 | 152 to 154 | 5.06 ± 0.68 | 3.29 ± 0.84 |  |  |  |  |  |  |  |  | > 0.2 | 1.78 |  | 46 | over 3 fold
O=c1[nH]cc(F)c(=O)[nH]1 [5-Fluorouracil, reference compound] | 15.1 ± 1.28 |  | 26.47 ± 0.16 | 12.2 ± 0.68 |  |  |  |  |  |  |  |  |  |  |  |  | 
